These results are taken from patent publication US20220273196A1, “INGESTIBLE DEVICE AND ASSOCIATED METHODS” (Biora Therapeutics, Inc., priority 2017, published 2022).

The nature of data set [1]: Dissolving drug pills or powder in water for spectroscopy samples. It counts as physicochemical. The conditions noted are these: pills or powder (Sigma A5000) in water, 0.1-10% (w/v) samples. The text has this: Other test samples included anti-inflammatory drugs, e.g., Ibuprofen and Acetaminophen, dissolved in water. Yet other test samples included microcrystalline cellulose, which can be one primary filler material in anti-inflammatory drugs, dissolved in water. […] The Ibuprofen, Acetaminophen and microcrystalline cellulose samples held by the well plate 700B were used to perform spectroscopy of Ibuprofen, Acetaminophen and microcrystalline cellulose in reflectance mode using Benchtop spectrometers #5, #2 and #3. Further, the Ibuprofen and Acetaminophen samples were siphoned from the well plate 700B and combined into a few cuvettes. […] These Ibuprofen and Acetaminophen samples held by the cuvettes were used to perform spectroscopy of Ibuprofen and Acetaminophen in transmission mode using Benchtop spectrometers #4, #5, #2 and #3.
Some test samples included solutions of Ibuprofen having various concentrations. Ibuprofen powder (Sigma 11892) was dissolved in water directly in cuvettes having an optical path thickness of 10 mm. These solutions had Ibuprofen concentrations varying in the range of 0.1-10% (w/v). Other test samples included solutions of Acetaminophen having various concentrations. Acetaminophen powder (Sigma A5000) was dissolved in water directly in cuvettes having an optical path thickness of 10 mm. […]

The target in another data set is cyclophilin (Homo sapiens, UniProt P62937). The conditions noted are these: cited from earlier work.
Data set [2] has as its system murine models of inflammatory bowel disease (IBD). As to conditions: numerous murine models; cited from earlier work.

Entries after “also recorded” stand apart in the source; their conditions may differ.

cyclophilin, sequence (P62937 whole entry): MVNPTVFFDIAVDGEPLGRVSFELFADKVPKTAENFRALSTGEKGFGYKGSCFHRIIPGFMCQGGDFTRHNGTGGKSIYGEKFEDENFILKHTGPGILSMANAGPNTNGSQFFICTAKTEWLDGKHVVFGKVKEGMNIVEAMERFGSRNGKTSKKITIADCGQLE

Turning to `CC(=O)Nc1ccc(O)cc1` [Acetaminophen], in data set [1], the solubility in water result is “limited solubility in water; also recorded: poor solubility”.

On to `C=C/C=C/C[C@@H](C)[C@@H](O)[C@H]1C(=O)N[C@@H](CC)C(=O)N(C)CC(=O)N(C)[C@@H](CC(C)C)C(=O)N[C@@H](C(C)C)C(=O)N(C)[C@@H](CC(C)C)C(=O)N[C@@H](C)C(=O)N[C@H](C)C(=O)N(C)[C@@H](CC(C)C)C(=O)N(C)[C@@H](CC(C)C)C(=O)N(C)[C@@H](C(C)C)C(=O)N1C` [voclosporin], for which, on cyclophilin, the “binding affinity for cyclophilin relative to cyclosporine A” value is “comparable”.

On to “L-glutamic acid polymer with L-alanine, L-lysine and L-tyrosine, acetate (salt) [Glatiramer acetate]”, for which the “effect on inflammation and pathological manifestations of IBD” value in data set [2] was “reduce inflammation and ameliorate the pathological manifestations”.
